For one assay, the system named is Human umbilical endothelial cells (HUVEC). As to the kind of experiment: Inhibition of VEGF165-stimulated HUVEC proliferation (3H-thymidine incorporation). Conditions: HUVEC proliferation stimulated with 5 ng/ml VEGF165 and 10 μg/ml heparin; 76 h incubation + 16 h 3H-thymidine. Format: cell-based. The procedure: Human umbilical endothelial cells (HUVEC) were cultivated in IMDM (Gibco BRL), supplemented with 10% foetal calf serum (FBS) (Sigma), 50 μM of β-mercaptoethanol (Fluka), standard antibiotics, 15 μg/ml of endothelial cell growth factor (ECGS, Collaborative Biomedical Products) and 100 μg/ml of heparin (Sigma) on gelatine-coated culture dishes (0.2% gelatine, Sigma) at 37° C., under 5% CO2 in a water-saturated atmosphere.
In order to investigate the inhibitory activity of the compounds according to the invention the cells were “starved” for 16 hours, i.e. kept in culture medium without growth factors (ECGS+heparin). The cells were detached from the culture dishes using trypsin/EDTA and washed once in serum-containing medium. Then they were seeded out in amounts of 2.5×10^3 cells per well.
The proliferation of the cells was stimulated with 5 ng/ml of VEGF165 (vascular endothelial growth factor; H. Weich, GBF Braunschweig) and 10 μg/ml of heparin. As a control, 6 wells in each dish were not stimulated.
The compounds according to the invention were dissolved in 100% dimethylsulphoxide and added to the cultures in various dilutions as triple measurements, the maximum dimethylsulphoxide concentration being 0.3%.
The cells were incubated for 76 hours at 37° C., then for a further 16 hours ^3H-thymidine (0.1 μCi/well, Amersham) was added in order to determine the DNA synthesis. Then the radioactively labelled cells were immobilised on filter mats and the radioactivity incorporated was measured in a β-counter. In order to determine the inhibitory activity of the compounds according to the invention the mean value of the non-stimulated cells was subtracted from the mean value of the factor-stimulated cells (in the presence or absence of the compounds according to the invention).
The relative cell proliferation was calculated as a percentage of the control (HUVEC without inhibitor) and the concentration of active substance which inhibits the proliferation of the cells by 50% (IC50) was determined.
In general terms: Incorporation of labelled thymidine or its analogues reports DNA synthesis.
Regarding `CN(C)CCN(c1ccc(N/C(=C2\C(=O)Nc3cc(Cl)ccc32)c2ccc3c(c2)OCCO3)cc1Cl)S(C)(=O)=O` [(ba), 6-chloro-3-(Z)-[1-(4-{N-(2-dimethylamino-ethyl)-N-methanesulphonyl-amino}-3-chloro-phenylamino)-1-(1,2-ethylenedioxyphen-4-yl)-methylene]-2-indolinone], the IC50 worked out at 30 nM.

For the molecule `CN(C)CCN(c1ccc(N/C(=C2\C(=O)Nc3cc(F)ccc32)c2ccc3c(c2)OCCO3)cc1Cl)S(C)(=O)=O` [(bd), 6-fluoro-3-(Z)-[1-(4-{N-(2-dimethylamino-ethyl)-N-methanesulphonyl-amino}-3-chloro-phenylamino)-1-(1,2-ethylenedioxyphen-4-yl)-methylene]-2-indolinone], the IC50 was 5 nM.

On to “3-(Z)-{1-(4-[N-acetyl-N-(2-dimethylaminoethyl)-amino]-phenylamino)-1-(3,4-(difluoromethylenedioxy)phenyl)-methylene}-6-chloro-2-indolinone [(al)]”, for which the IC50 is 83 nM.

Consider `COc1cc(N/C(=C2\C(=O)Nc3cc(Cl)ccc32)c2ccc3c(c2)OCCO3)ccc1N(C)C(=O)CN(C)C` [(bb), 6-chloro-3-(Z)-{1-[4-(N-dimethylaminomethylcarbonyl-N-methyl-amino)-3-methoxy-phenylamino]-1-(1,2-ethylenedioxyphen-4-yl)-methylene}-2-indolinone], for which the IC50 is 33 nM.

The same assay, now with this note: Homo sapiens; HUVEC proliferation stimulated with 5 ng/ml VEGF165 and 10 μg/ml heparin; 76 h incubation + 16 h 3H-thymidine.
For `CCN(C)Cc1ccc(N/C(=C2\C(=O)Nc3cc(Cl)ccc32)c2ccc3c(c2)OCO3)cc1` [(c), 3-(Z)-{1-[4-(N-ethyl-N-methyl-aminomethyl)-phenylamino]-1-(3,4-methylenedioxy-phenyl)-methylene}-6-chloro-2-indolinone], the IC50 was determined as 2 nM.

Regarding `CN1CCN(C(=O)Cc2ccc(N/C(=C3\C(=O)Nc4cc(F)ccc43)c3ccc4c(c3)OCCO4)cc2)CC1` [(aw), 3-(Z)-{1-(4-[(1-methyl-piperazin-4-yl)-carbonylmethyl]-phenylamino)-1-(3,4-ethylenedioxyphenyl)-methylene}-6-fluoro-2-indolinone], the IC50 came to 4 nM.

For the molecule `Cn1cnc2cc(/C(Nc3ccc(Cn4cncn4)cc3)=C3/C(=O)Nc4cc(F)ccc43)ccc21` [(e), 3-(Z)-{1-[4-(1,2,4-triazol-1-yl-methyl)-phenylamino]-1-(1-methyl-benzimidazol-5-yl)-methylene}-6-fluoro-2-indolinone], the IC50 stood at 16 nM.

As for `COC(=O)c1ccc2c(c1)NC(=O)/C2=C(\Nc1ccc(CN2CCCC2)cc1)c1ccc2c(c1)OCCO2` [(s), 3-(Z)-{1-(4-[pyrrolidin-1-yl-methyl]-phenylamino)-1-(3,4-ethylenedioxyphenyl)-methylene}-6-methoxycarbonyl-2-indolinone], the IC50 stood at 0.6 nM.

As for `CN1CCN(CC(=O)N(C)c2ccc(N/C(=C3\C(=O)Nc4cc(Cl)ccc43)c3ccc4c(c3)OCO4)cc2)CC1` [(az), 3-(Z)-{1-(4-[N-methyl-N-(4-methylpiperazin-1-yl-methylcarbonyl)-amino]-phenyl-amino)-1-(3,4-methylenedioxyphenyl)-methylene}-6-chloro-2-indolinone], the IC50 worked out at 6 nM.

In the case of `CN1CCN(CC(=O)N(C)c2ccc(N/C(=C3\C(=O)Nc4cc(Cl)ccc43)c3ccc4nccnc4c3)cc2)CC1` [(b), 3-(Z)-{1-(4-[N-methyl-N-(4-methylpiperazin-1-yl-methylcarbonyl)-amino]-phenyl-amino)-1-(quinoxalin-6-yl)-methylene}-6-chloro-2-indolinone], the IC50 was found to be 4 nM.

Turning to `CC(=O)N(CCN(C)C)c1ccc(N/C(=C2\C(=O)Nc3cc(Cl)ccc32)c2ccc3c(c2)OCCO3)cc1` [(p), 3-(Z)-{1-(4-[N-acetyl-N-(2-dimethylaminoethyl)-amino]-phenylamino)-1-(3,4-ethylenedioxyphenyl)-methylene}-6-chloro-2-indolinone], the IC50 was determined as 2 nM.

For `CN(C)CCN(c1ccc(N/C(=C2\C(=O)Nc3cc(Cl)ccc32)c2ccc3c(c2)OCCO3)cc1)S(C)(=O)=O` [(h), 3-(Z)-{1-(4-[N-methanesulphonyl-N-(2-dimethylaminoethyl)-amino]-phenylamino)-1-(3,4-ethylenedioxyphenyl)-methylene}-6-chloro-2-indolinone], the IC50 was 3 nM.

`COC(=O)c1ccc2c(c1)NC(=O)/C2=C(\Nc1ccc(N(C)C(=O)CN(C)C)cc1)c1ccc2c(c1)OCCO2` [(t), 3-(Z)-{1-(4-[N-methyl-N-(dimethylaminomethylcarbonyl)-amino]-phenylamino)-1-(3,4-ethylenedioxyphenyl)-methylene}-6-methoxycarbonyl-2-indolinone]: the IC50 turned out to be 0.6 nM.

Consider `COC(=O)c1ccc2c(c1)NC(=O)/C2=C(\Nc1ccc(N(CCN(C)C)C(C)=O)cc1)c1ccc2c(c1)OCCO2` [(ac), 3-(Z)-{1-(4-[N-acetyl-N-(2-dimethylaminoethyl)-amino]-phenylamino)-1-(3,4-ethylenedioxyphenyl)-methylene}-6-methoxycarbonyl-2-indolinone], for which the IC50 was found to be 0.2 nM.

`CN(C)Cc1ccc(N/C(=C2\C(=O)Nc3ccccc32)c2ccc3c(c2)nnn3C)cc1` [(av), 3-(Z)-{1-[4-(dimethylaminomethyl)-phenylamino]-1-(1-methyl-benzotriazol-5-yl)-methylene}-2-indolinone]: the IC50 was 94 nM.

`CN(C)Cc1ccc(N/C(=C2\C(=O)Nc3cc(Cl)ccc32)c2ccc3c(c2)OCO3)cc1` [(a), 3-(Z)-{1-[4-(dimethylaminomethyl)-phenylamino]-1-(3,4-methylenedioxyphenyl)-methylene}-6-chloro-2-indolinone]: the IC50 was determined as 11 nM.

As to `CN(C)CC(=O)N(C)c1ccc(N/C(=C2\C(=O)Nc3ccccc32)c2ccoc2)cc1` [(an), 3-(Z)-{1-(4-[N-methyl-N-(dimethylaminomethylcarbonyl)-amino]-phenylamino)-1-(3-furyl)-methylene}-2-indolinone], the IC50 is 58 nM.

As to `CN1CCN(Cc2ccc(N/C(=C3\C(=O)Nc4cc(Cl)ccc43)c3ccc4c(c3)OCO4)cc2)CC1` [(q), 3-(Z)-{1-(4-[4-methylpiperazin-1-yl-methyl]-phenylamino)-1-(3,4-methylenedioxy-phenyl)-methylene}-6-chloro-2-indolinone], the IC50 was 2 nM.

Turning to `CN(C)CCC(=O)N(C)c1ccc(N/C(=C2\C(=O)Nc3cc(F)ccc32)c2ccc3c(c2)OCCO3)cc1` [(d), 3-(Z)-{1-[4-(N-methyl-N-{2-(dimethylamino)-ethyl-carbonyl}-amino)-phenylamino]-1-(3,4-ethylenedioxyphenyl)-methylene}-6-fluoro-2-indolinone], the IC50 stood at 3 nM.

For the molecule `CCC(=O)N(CCCN(C)C)c1ccc(N/C(=C2\C(=O)Nc3cc(F)ccc32)c2ccc3c(c2)OCCO3)cc1` [(z), 3-(Z)-{1-(4-[N-propionyl-N-(3-dimethylaminopropyl)-amino]-phenylamino)-1-(3,4-ethylenedioxyphenyl)-methylene}-6-fluoro-2-indolinone], the IC50 is 0.5 nM.

With `CCN(CC)Cc1ccc(N/C(=C2\C(=O)Nc3cc(C(=O)OC)ccc32)c2ccc3c(c2)OCO3)cc1` [(x), 3-(Z)-{1-(4-[diethylamino-methyl]-phenylamino)-1-(3,4-methylenedioxyphenyl)-methylene}-6-methoxycarbonyl-2-indolinone], the IC50 is 1 nM.

For `CN(C)C(=O)c1ccc(N/C(=C2\C(=O)Nc3cc(F)ccc32)c2ccc3c(c2)ncn3C)cc1` [(y), 3-(Z)-{1-[4-(dimethylaminocarbonyl)-phenylamino]-1-(1-methyl-benzimidazol-5-yl)-methylene}-6-fluoro-2-indolinone], the IC50 came to 14 nM.

Regarding `Cn1ccnc1-c1ccc(N/C(=C2\C(=O)Nc3cc(Cl)ccc32)c2ccc3nccnc3c2)cc1` [(ar), 3-(Z)-{1-(4-[1-methylimidazol-2-yl]-phenylamino)-1-(quinoxalin-6-yl)-methylene}-6-chloro-2-indolinone], the IC50 was 71 nM.

Regarding `CN1CCC(N(C)C(=O)c2ccc(N/C(=C3\C(=O)Nc4cc(F)ccc43)c3ccc4c(c3)OCCO4)cc2)CC1` [(am), 3-(Z)-{1-(4-[N-methyl-N-(1-methyl-4-piperidinyl)-aminocarbonyl]-phenylamino)-1-(3,4-ethylenedioxyphenyl)-methylene}-6-fluoro-2-indolinone], the IC50 was 5 nM.

For the molecule `CCC(=O)N(CCN(C)C)c1ccc(N/C(=C2\C(=O)Nc3cc(F)ccc32)c2ccc3c(c2)OCCO3)cc1` [(aa), 3-(Z)-{1-(4-[N-propionyl-N-(2-dimethylaminoethyl)-amino]-phenylamino)-1-(3,4-ethylenedioxyphenyl)-methylene}-6-fluoro-2-indolinone], the IC50 is 0.6 nM.

For the molecule `COC(=O)c1ccc2c(c1)NC(=O)/C2=C(\Nc1ccc(CN(C)C)cc1)c1ccc2c(c1)OCCO2` [(i), 3-(Z)-{1-[4-(dimethylaminomethyl)-phenylamino]-1-(3,4-ethylenedioxyphenyl)-methylene}-6-methoxycarbonyl-2-indolinone], the IC50 was determined as 0.5 nM.

Broadly, the IC50 is the point on the concentration scale where inhibition reaches its midpoint.

The values are drawn from patent publication US7148249B2, “Indolinones substituted by heterocycles, the preparation thereof and their use as medicaments” (Boehringer Ingelheim Pharma GmbH & Co. KG, priority 2002, dated 2006).
